#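 48-hour exposure; five concentrations; linearly interpolated endpoints. Here, GI50 denotes the concentration required for 50% inhibition of growth.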 Active and inactive are the calls of the source. No stated cut-off is given here; in the data, active = GI50 up to about 1.1 µM and inactive = higher.
# How the values were obtained:
# Test in all cases: inhibition of tumour cell growth, NCI panel, 48 h
# SK-MEL-2 = test system: SK-MEL-2
# NCI-H460 = test system: NCI-H460
# NCI-H226 = test system: NCI-H226
# SF-539 = test system: SF-539
# DMS-273 = test system: DMS-273
# SK-MEL-5 = test system: SK-MEL-5
# LXFL 529 = test system: LXFL 529
# SNB-78 = test system: SNB-78
# HCT-15 = test system: HCT-15
# SF-268 = test system: SF-268
# HCT-116 = test system: HCT-116
# HT-29 = test system: HT-29
# ACHN = test system: ACHN
# CCRF-CEM = test system: CCRF-CEM
# EKVX = test system: EKVX
# UACC-62 = test system: UACC-62
# Malme-3M = test system: Malme-3M
# UACC-257 = test system: UACC-257
# OVCAR-4 = test system: OVCAR-4
# COLO 205 = test system: COLO 205
# OVCAR-8 = test system: OVCAR-8
# SN12C = test system: SN12C
# OVCAR-3 = test system: OVCAR-3
# SW-620 = test system: SW-620
# DLD-1 = test system: DLD-1
# M14 = test system: M14
# HL-60 = test system: HL-60
# HOP-18 = test system: HOP-18
# NCI-H23 = test system: NCI-H23
# M19-MEL = test system: M19-MEL
# 786-0 = test system: 786-0
# XF498 = test system: XF498
# SK-MEL-28 = test system: SK-MEL-28
# IGROV-1 = test system: IGROV-1
# DMS-114 = test system: DMS-114
# KM-20L2 = test system: KM-20L2
# HOP-92 = test system: HOP-92
# HCC 2998 = test system: HCC 2998
SMILES,GI50 (SK-MEL-2),GI50 (NCI-H460),GI50 (NCI-H226),GI50 (SF-539),GI50 (DMS-273),GI50 (SK-MEL-5),GI50 (LXFL 529),GI50 (SNB-78),GI50 (HCT-15),GI50 (SF-268),GI50 (HCT-116),GI50 (HT-29),GI50 (ACHN),GI50 (CCRF-CEM),GI50 (EKVX),GI50 (UACC-62),GI50 (Malme-3M),GI50 (UACC-257),GI50 (OVCAR-4),GI50 (COLO 205),other results
C=C1CCC2[C@@H](CCC3[C@]2(C)CCC[C@]3(C)C(=O)OC)C1CC=O (stereo not given in full),18.9 µM (inactive),15.3 µM (inactive),17.9 µM (inactive),16.9 µM (inactive),20.9 µM (inactive),19.6 µM (inactive),16 µM (inactive),17.6 µM (inactive),19.9 µM,18.2 µM (inactive),15.2 µM (inactive),16.6 µM (inactive),15.9 µM (inactive),14 µM (inactive),20.1 µM (inactive),15.2 µM (inactive),19.1 µM (inactive),16.2 µM (inactive),17.4 µM (inactive),18.5 µM (inactive),GI50 (OVCAR-8): 19.4 µM (inactive); GI50 (SN12C): 18.2 µM (inactive); GI50 (OVCAR-3): 14.2 µM (inactive); GI50 (SW-620): 19.1 µM (inactive); GI50 (DLD-1): 21.6 µM (inactive); GI50 (M14): 16.5 µM (inactive); GI50 (HL-60): 15.6 µM (inactive); GI50 (HOP-18): 15.6 µM (inactive); GI50 (NCI-H23): 18.6 µM (inactive); GI50 (M19-MEL): 18.2 µM (inactive); GI50 (786-0): 18.1 µM (inactive); GI50 (XF498): 14.1 µM (inactive); GI50 (SK-MEL-28): 16.3 µM (inactive); GI50 (IGROV-1): 20.2 µM (inactive); GI50 (DMS-114): 17.5 µM (inactive); GI50 (KM-20L2): 18.8 µM (inactive); GI50 (HOP-92): 14.6 µM (inactive)
C=C1CCC2[C@@H](CCC3[C@]2(C)CCC[C@]3(C)C(=O)OC)[C@@H]1CC=O (stereo not given in full),31.6 µM (inactive),20 µM (inactive),27.7 µM (inactive),17.9 µM (inactive),22.4 µM (inactive),17 µM (inactive),31.9 µM (inactive),34.4 µM (inactive),29.5 µM,34.6 µM (inactive),16.7 µM (inactive),28.1 µM (inactive),27.2 µM (inactive),22.4 µM (inactive),35.1 µM (inactive),24.6 µM (inactive),28.8 µM (inactive),26.5 µM (inactive),27.6 µM (inactive),36.9 µM (inactive),GI50 (HCC 2998): 61.7 µM (inactive); GI50 (OVCAR-8): 23.6 µM (inactive); GI50 (SN12C): 30.3 µM (inactive); GI50 (OVCAR-3): 20.5 µM (inactive); GI50 (SW-620): 17.6 µM (inactive); GI50 (DLD-1): 33.6 µM (inactive); GI50 (M14): 19.4 µM (inactive); GI50 (HL-60): 23.5 µM (inactive); GI50 (HOP-18): 24.8 µM (inactive); GI50 (NCI-H23): 25.8 µM (inactive); GI50 (M19-MEL): 22.4 µM (inactive); GI50 (786-0): 36.1 µM (inactive); GI50 (XF498): 19.9 µM (inactive); GI50 (SK-MEL-28): 27.7 µM (inactive); GI50 (IGROV-1): 35.8 µM (inactive); GI50 (DMS-114): 22 µM (inactive); GI50 (KM-20L2): 27 µM (inactive); GI50 (HOP-92): 20.2 µM (inactive)

# From ChEMBL document CHEMBL1201862, “PubChem BioAssay data set” (2004)
